Measurements taken from ChEMBL document CHEMBL4014279, “Synthesis of novel pyrazolo[3,4-b]quinolinyl acetamide analogs, their evaluation for antimicrobial and anticancer activities, validation by molecular modeling and CoMFA analysis” (Eur J Med Chem, 2017).
≈ marks a conversion by molar mass, not a printed value.

Experiments:
Candida albicans [1] = experiment: Antifungal activity against Candida albicans MTCC 3018 after 24 hrs by well diffusion method; assay type: functional; settings: MTCC 3018, 24 h
Escherichia coli [2] = experiment: Antibiofilm activity against Escherichia coli MTCC 739 after 24 hrs by crystal violet staining based method; assay type: functional; settings: MTCC 739, 24 h
Candida albicans [3] = experiment: Antifungal activity against Candida albicans MTCC 3017 after 24 hrs by well diffusion method; assay type: functional; settings: MTCC 3017, 24 h
Staphylococcus aureus [4] = experiment: Antibiofilm activity against Staphylococcus aureus MTCC 96 after 24 hrs by crystal violet staining based method; assay type: functional; settings: MTCC 96, 24 h
Nakaseomyces glabratus = experiment: Antifungal activity against Candida glabrata MTCC 3019 after 24 hrs by well diffusion method; assay type: functional; settings: MTCC 3019, 24 h
A549 = experiment: Cytotoxicity against human A549 cells after 24 hrs by MTT assay; assay type: functional, cell-based; settings: A549, 24 h
Candida albicans [5] = experiment: Antifungal activity against Candida albicans MTCC 183 after 24 hrs by well diffusion method; assay type: functional; settings: MTCC 183, 24 h
Staphylococcus aureus [6] = experiment: Antibacterial activity against Staphylococcus aureus MLS16 MTCC 2940 after 24 hrs by well diffusion method; assay type: functional; settings: MLS16 MTCC 2940, 24 h
Micrococcus luteus [7] = experiment: Antibiofilm activity against Micrococcus luteus MTCC 2470 after 24 hrs by crystal violet staining based method; assay type: functional; settings: MTCC 2470, 24 h
Pichia sporocuriosa = experiment: Antifungal activity against Issatchenkia hanoiensis MTCC 4755 after 24 hrs by well diffusion method; assay type: functional; settings: MTCC 4755, 24 h
COLO 205 = experiment: Cytotoxicity against human COLO205 cells after 24 hrs by MTT assay; assay type: functional, cell-based; settings: COLO 205, 24 h
Candida albicans [8] = experiment: Antifungal activity against Candida albicans MTCC 4748 after 24 hrs by well diffusion method; assay type: functional; settings: MTCC 4748, 24 h
Bacillus subtilis [9] = experiment: Antibacterial activity against Bacillus subtilis MTCC 121 after 24 hrs by well diffusion method; assay type: functional; settings: MTCC 121, 24 h
Staphylococcus aureus [10] = experiment: Antibiofilm activity against Staphylococcus aureus MLS16 MTCC 2940 after 24 hrs by crystal violet staining based method; assay type: functional; settings: MLS16 MTCC 2940, 24 h
HepG2 = experiment: Cytotoxicity against human HepG2 cells after 24 hrs by MTT assay; assay type: functional, cell-based; settings: HepG2, 24 h
Candida albicans [11] = experiment: Antifungal activity against Candida albicans MTCC 1637 after 24 hrs by well diffusion method; assay type: functional; settings: MTCC 1637, 24 h
[Candida] aaseri = Antifungal activity against Candida aaseri MTCC 1962 after 24 hrs by well diffusion method; assay type: functional; settings: Yamadazyma aaseri, MTCC 1962, 24 h
Micrococcus luteus [12] = experiment: Antibacterial activity against Micrococcus luteus MTCC 2470 after 24 hrs by well diffusion method; assay type: functional; settings: MTCC 2470, 24 h
Raoultella planticola [13] = experiment: Antibacterial activity against Klebsiella planticola MTCC 530 after 24 hrs by well diffusion method; assay type: functional; settings: MTCC 530, 24 h
Staphylococcus aureus [14] = experiment: Induction of intracellular ROS accumulation in Staphylococcus aureus MLS16 MTCC 2940 sessile biofilm cells assessed as fluorescence intensity at 2 ug/ml after 24 hrs by DCFH-DA staining-based fluorescence assay (reference value: 62 +/- 9.8 a.u.); assay type: functional
Candida albicans [15] = experiment: Antifungal activity against Candida albicans MTCC 3958 after 24 hrs by well diffusion method; assay type: functional; settings: MTCC 3958, 24 h
Bacillus subtilis [16] = experiment: Antibiofilm activity against Bacillus subtilis MTCC 121 after 24 hrs by crystal violet staining based method; assay type: functional; settings: MTCC 121, 24 h
Staphylococcus aureus [17] = experiment: Antibacterial activity against Staphylococcus aureus MTCC 96 after 24 hrs by well diffusion method; assay type: functional; settings: MTCC 96, 24 h
Candida albicans [18] = experiment: Antifungal activity against Candida albicans MTCC 227 after 24 hrs by well diffusion method; assay type: functional; settings: MTCC 227, 24 h
Staphylococcus aureus [19] = experiment: Induction of intracellular ROS accumulation in Staphylococcus aureus MLS16 MTCC 2940 sessile biofilm cells assessed as fluorescence intensity at 1 ug/ml after 24 hrs by DCFH-DA staining-based fluorescence assay (reference value: 62 +/- 9.8 a.u.); assay type: functional
Pseudomonas aeruginosa = experiment: Antibacterial activity against Pseudomonas aeruginosa MTCC 2453 after 24 hrs by well diffusion method; assay type: functional; settings: MTCC 2453, 24 h
Candida albicans [20] = experiment: Antifungal activity against Candida albicans MTCC 7315 after 24 hrs by well diffusion method; assay type: functional; settings: MTCC 7315, 24 h
Pichia kudriavzevii = experiment: Antifungal activity against Candida krusei MTCC 3020 after 24 hrs by well diffusion method; assay type: functional; settings: MTCC 3020, 24 h
Candida albicans [21] = experiment: Antibiofilm activity against Candida albicans MTCC 4748 after 24 hrs by crystal violet staining based method; assay type: functional; settings: MTCC 4748, 24 h
Raoultella planticola [22] = experiment: Antibiofilm activity against Klebsiella planticola MTCC 530 after 24 hrs by crystal violet staining based method; assay type: functional; settings: MTCC 530, 24 h
Candida parapsilosis = experiment: Antifungal activity against Candida parapsilosis MTCC 1744 after 24 hrs by well diffusion method; assay type: functional; settings: MTCC 1744, 24 h
Candida albicans [23] = experiment: Antifungal activity against Candida albicans MTCC 854 after 24 hrs by well diffusion method; assay type: functional; settings: MTCC 854, 24 h
Staphylococcus aureus [24] = experiment: Induction of intracellular ROS accumulation in Staphylococcus aureus MLS16 MTCC 2940 sessile biofilm cells assessed as fluorescence intensity at 3 ug/ml after 24 hrs by DCFH-DA staining-based fluorescence assay (reference value: 62 +/- 9.8 a.u.); assay type: functional
Escherichia coli [25] = experiment: Antibacterial activity against Escherichia coli MTCC 739 after 24 hrs by well diffusion method; assay type: functional; settings: MTCC 739, 24 h
HeLa = experiment: Cytotoxicity against human HeLa cells after 24 hrs by MTT assay; assay type: functional, cell-based
Staphylococcus aureus [26] = experiment: Induction of intracellular ROS accumulation in Staphylococcus aureus MLS16 MTCC 2940 sessile biofilm cells assessed as fluorescence intensity at 4 ug/ml after 24 hrs by DCFH-DA staining-based fluorescence assay (reference value: 62 +/- 9.8 a.u.); assay type: functional

Compound	MIC (Candida albicans [1]) [µg/mL]	IC50 (Escherichia coli [2]) [µM]	MIC (Candida albicans [3]) [µg/mL]	MIC (Nakaseomyces glabratus) [µg/mL]	MIC (Candida albicans [5]) [µg/mL]	MIC (Staphylococcus aureus [6]) [µg/mL]	MIC (Pichia sporocuriosa) [µg/mL]	MIC (Candida albicans [8]) [µg/mL]	MIC (Bacillus subtilis [9]) [µg/mL]	MIC (Candida albicans [11]) [µg/mL]	MIC ([Candida] aaseri) [µg/mL]	MIC (Micrococcus luteus [12]) [µg/mL]	MIC (Raoultella planticola [13]) [µg/mL]	Flu intensity (Staphylococcus aureus [14]) [a.u.]	MIC (Candida albicans [15]) [µg/mL]	IC50 (Bacillus subtilis [16]) [µM]	MIC (Staphylococcus aureus [17]) [µg/mL]	MIC (Candida albicans [18]) [µg/mL]	Flu intensity (Staphylococcus aureus [19]) [a.u.]	MIC (Pseudomonas aeruginosa) [µg/mL]	further results
O=C(Cn1nc(C(F)(F)F)c2c(-c3ccccc3)c3ccccc3nc21)NCCN1CCNCC1	15.6 (≈ 32.3 µM)	4.2	7.8 (≈ 16.2 µM)	15.6 (≈ 32.3 µM)	7.8 (≈ 16.2 µM)	3.9 (≈ 8.08 µM)	7.8 (≈ 16.2 µM)	7.8 (≈ 16.2 µM)	3.9 (≈ 8.08 µM)	7.8 (≈ 16.2 µM)	15.6 (≈ 32.3 µM)	3.9 (≈ 8.08 µM)	3.9 (≈ 8.08 µM)	792	15.6 (≈ 32.3 µM)	2.2	7.8 (≈ 16.2 µM)	15.6 (≈ 32.3 µM)	492	> 125	IC50 (Staphylococcus aureus [4]): 4.1 µM; IC50 (A549): 10.6 µM; IC50 (Micrococcus luteus [7]): 2.5 µM; IC50 (COLO 205): 12.2 µM; IC50 (Staphylococcus aureus [10]): 2.1 µM; IC50 (HepG2): 11.2 µM; MIC (Candida albicans [20]): 15.6 µg/mL (≈ 32.3 µM); MIC (Pichia kudriavzevii): 15.6 µg/mL (≈ 32.3 µM); IC50 (Candida albicans [21]): 5.1 µM; IC50 (Raoultella planticola [22]): 2.3 µM; MIC (Candida parapsilosis): 7.8 µg/mL (≈ 16.2 µM); MIC (Candida albicans [23]): 15.6 µg/mL (≈ 32.3 µM); Flu intensity (Staphylococcus aureus [24]): 101 a.u.; MIC (Escherichia coli [25]): 7.8 µg/mL (≈ 16.2 µM); IC50 (HeLa): 13.6 µM; Flu intensity (Staphylococcus aureus [26]): 1342 a.u.
Clc1ccc(COC(Cn2ccnc2)c2ccc(Cl)cc2Cl)c(Cl)c1 (centres undefined) [MICONAZOLE]	7.8 (≈ 18.7 µM)	–	7.8 (≈ 18.7 µM)	7.8 (≈ 18.7 µM)	7.8 (≈ 18.7 µM)	–	7.8 (≈ 18.7 µM)	7.8 (≈ 18.7 µM)	–	7.8 (≈ 18.7 µM)	7.8 (≈ 18.7 µM)	–	–	–	7.8 (≈ 18.7 µM)	–	–	7.8 (≈ 18.7 µM)	–	–	MIC (Candida albicans [20]): 7.8 µg/mL (≈ 18.7 µM); MIC (Pichia kudriavzevii): 7.8 µg/mL (≈ 18.7 µM); IC50 (Candida albicans [21]): 2.6 µM; MIC (Candida parapsilosis): 7.8 µg/mL (≈ 18.7 µM); MIC (Candida albicans [23]): 7.8 µg/mL (≈ 18.7 µM)
O=C(O)c1cn(C2CC2)c2cc(N3CCNCC3)c(F)cc2c1=O [CIPROFLOXACIN]	–	0.8	–	–	–	0.9 (≈ 2.72 µM)	–	–	0.9 (≈ 2.72 µM)	–	–	0.9 (≈ 2.72 µM)	0.9 (≈ 2.72 µM)	925	–	0.6	0.9 (≈ 2.72 µM)	–	601	0.9 (≈ 2.72 µM)	Flu intensity (Staphylococcus aureus [24]): 1952 a.u.; MIC (Escherichia coli [25]): 0.9 µg/mL (≈ 2.72 µM); Flu intensity (Staphylococcus aureus [26]): 2010 a.u.
